The source made the active and inactive calls. The calls are words filed in the database; no cut-off is given here.
Assays:
[1] = target: T1, Tyrosine-protein kinase ITK/TSK (Homo sapiens) (UniProt Q08881); assay: Inhibition of Itk in EGF-stimulated human A549 cells assessed as reduction in tyrosine phosphorylation at <=10 uM incubated for 20 mins by Western blotting analysis; type: cell-based
T1 sequence (whole entry): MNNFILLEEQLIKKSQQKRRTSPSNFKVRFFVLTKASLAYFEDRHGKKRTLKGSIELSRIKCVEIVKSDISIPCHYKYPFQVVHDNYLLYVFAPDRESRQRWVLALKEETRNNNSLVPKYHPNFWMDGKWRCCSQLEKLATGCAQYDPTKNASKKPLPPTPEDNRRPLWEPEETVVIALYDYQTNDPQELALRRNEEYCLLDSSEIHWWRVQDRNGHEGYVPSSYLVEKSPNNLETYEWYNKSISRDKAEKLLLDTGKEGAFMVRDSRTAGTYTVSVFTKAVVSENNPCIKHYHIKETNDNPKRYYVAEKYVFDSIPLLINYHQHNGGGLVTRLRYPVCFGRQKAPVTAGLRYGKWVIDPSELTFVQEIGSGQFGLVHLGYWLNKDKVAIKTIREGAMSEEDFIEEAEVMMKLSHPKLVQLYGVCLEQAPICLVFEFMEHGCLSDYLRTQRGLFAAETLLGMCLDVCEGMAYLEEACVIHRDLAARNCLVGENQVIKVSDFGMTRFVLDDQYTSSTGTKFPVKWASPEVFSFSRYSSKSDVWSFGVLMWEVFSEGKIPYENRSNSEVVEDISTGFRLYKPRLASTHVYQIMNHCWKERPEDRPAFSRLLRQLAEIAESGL

[2] = target: T2, Tyrosine-protein kinase ZAP-70 (Homo sapiens, UniProt P43403); assay: Inhibition of ZAP-70 (unknown origin) using GST-SLP-76 as peptide substrate incubated for 10 mins in presence of [gamma-33P]ATP by scintillation counter assay
T2 sequence (P43403 whole entry): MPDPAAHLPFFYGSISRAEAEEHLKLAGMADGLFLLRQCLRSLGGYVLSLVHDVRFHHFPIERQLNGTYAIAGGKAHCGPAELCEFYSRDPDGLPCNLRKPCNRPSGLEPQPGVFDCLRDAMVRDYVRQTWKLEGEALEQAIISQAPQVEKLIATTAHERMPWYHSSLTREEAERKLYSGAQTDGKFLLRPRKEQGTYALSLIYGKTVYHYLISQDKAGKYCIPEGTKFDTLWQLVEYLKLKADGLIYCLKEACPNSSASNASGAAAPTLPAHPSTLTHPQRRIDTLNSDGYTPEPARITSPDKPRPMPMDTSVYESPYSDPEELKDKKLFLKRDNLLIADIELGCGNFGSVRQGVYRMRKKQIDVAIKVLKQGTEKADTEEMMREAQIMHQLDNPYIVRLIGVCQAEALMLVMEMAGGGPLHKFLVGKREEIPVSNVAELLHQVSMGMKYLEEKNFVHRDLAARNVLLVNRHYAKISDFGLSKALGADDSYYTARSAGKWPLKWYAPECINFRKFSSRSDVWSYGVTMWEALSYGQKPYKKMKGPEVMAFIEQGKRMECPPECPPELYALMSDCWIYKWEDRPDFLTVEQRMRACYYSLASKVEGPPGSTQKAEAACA

[3] = target: T1, Tyrosine-protein kinase ITK/TSK (Homo sapiens); assay: Inhibition of Itk in human Jurkat T cells assessed as inhibition of tyrosine phosphorylation with 145 kDa molecular weight at 0.1 to 10 uM incubated for 20 mins in presence of CD3 antibody G19-4 by Western blotting analysis; type: cell-based; conditions: dose 0.1-10 µM
[4] = target: Mitogen-activated protein kinase 3 (Homo sapiens, UniProt P27361); assay: Inhibition of ERK-1 (unknown origin) using GST-SLP-76 as peptide substrate incubated for 10 mins in presence of [gamma-33P]ATP by scintillation counter assay
Sequence of Mitogen-activated protein kinase 3 (P27361 whole entry): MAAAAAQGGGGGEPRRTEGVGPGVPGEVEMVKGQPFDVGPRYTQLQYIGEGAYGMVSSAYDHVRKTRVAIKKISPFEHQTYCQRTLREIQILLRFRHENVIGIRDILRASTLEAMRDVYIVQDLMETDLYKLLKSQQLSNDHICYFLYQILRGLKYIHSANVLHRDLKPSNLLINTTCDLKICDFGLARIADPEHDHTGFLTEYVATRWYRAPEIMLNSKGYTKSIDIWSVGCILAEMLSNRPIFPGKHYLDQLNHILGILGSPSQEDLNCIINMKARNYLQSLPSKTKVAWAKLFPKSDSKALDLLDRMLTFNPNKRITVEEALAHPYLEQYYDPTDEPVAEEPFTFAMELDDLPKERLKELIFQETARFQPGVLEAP

[5] = target: T3, Tyrosine-protein kinase TXK (Homo sapiens, UniProt P42681); assay: Inhibition of Txk (unknown origin) using GST-SLP-76 as peptide substrate incubated for 10 mins in presence of [gamma-33P]ATP by scintillation counter assay
T3 sequence (P42681 whole entry): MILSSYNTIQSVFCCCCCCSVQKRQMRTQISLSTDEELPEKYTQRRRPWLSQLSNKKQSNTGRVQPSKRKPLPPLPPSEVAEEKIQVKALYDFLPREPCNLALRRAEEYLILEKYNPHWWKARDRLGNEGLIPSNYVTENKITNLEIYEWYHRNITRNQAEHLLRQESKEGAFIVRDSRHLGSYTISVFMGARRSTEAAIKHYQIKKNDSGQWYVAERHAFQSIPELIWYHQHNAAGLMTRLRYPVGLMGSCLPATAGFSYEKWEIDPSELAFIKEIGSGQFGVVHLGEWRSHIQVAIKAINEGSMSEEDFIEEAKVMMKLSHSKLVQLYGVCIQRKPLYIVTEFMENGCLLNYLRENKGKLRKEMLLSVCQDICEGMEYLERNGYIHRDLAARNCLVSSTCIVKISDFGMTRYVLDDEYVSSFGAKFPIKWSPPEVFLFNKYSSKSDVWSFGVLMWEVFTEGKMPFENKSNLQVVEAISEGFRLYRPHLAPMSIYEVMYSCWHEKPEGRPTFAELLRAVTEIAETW

[6] = tested on: T-cell line; assay: Anti-proliferative activity against irradiated APC induced human T cell incubated for 3 days; type: functional, cell-based; conditions: light or radiation study, 72 h
[7] = Inhibition of CaMKII (unknown origin) using GST-SLP-76 as peptide substrate incubated for 10 mins in presence of [gamma-33P]ATP by scintillation counter assay; parameters: species or system Homo sapiens
[8] = target: Insulin receptor (Homo sapiens, UniProt P06213); assay: Inhibition of IR (unknown origin) using GST-SLP-76 as peptide substrate incubated for 10 mins in presence of [gamma-33P]ATP by scintillation counter assay
Sequence of Insulin receptor (P06213 28-758 limits assumed): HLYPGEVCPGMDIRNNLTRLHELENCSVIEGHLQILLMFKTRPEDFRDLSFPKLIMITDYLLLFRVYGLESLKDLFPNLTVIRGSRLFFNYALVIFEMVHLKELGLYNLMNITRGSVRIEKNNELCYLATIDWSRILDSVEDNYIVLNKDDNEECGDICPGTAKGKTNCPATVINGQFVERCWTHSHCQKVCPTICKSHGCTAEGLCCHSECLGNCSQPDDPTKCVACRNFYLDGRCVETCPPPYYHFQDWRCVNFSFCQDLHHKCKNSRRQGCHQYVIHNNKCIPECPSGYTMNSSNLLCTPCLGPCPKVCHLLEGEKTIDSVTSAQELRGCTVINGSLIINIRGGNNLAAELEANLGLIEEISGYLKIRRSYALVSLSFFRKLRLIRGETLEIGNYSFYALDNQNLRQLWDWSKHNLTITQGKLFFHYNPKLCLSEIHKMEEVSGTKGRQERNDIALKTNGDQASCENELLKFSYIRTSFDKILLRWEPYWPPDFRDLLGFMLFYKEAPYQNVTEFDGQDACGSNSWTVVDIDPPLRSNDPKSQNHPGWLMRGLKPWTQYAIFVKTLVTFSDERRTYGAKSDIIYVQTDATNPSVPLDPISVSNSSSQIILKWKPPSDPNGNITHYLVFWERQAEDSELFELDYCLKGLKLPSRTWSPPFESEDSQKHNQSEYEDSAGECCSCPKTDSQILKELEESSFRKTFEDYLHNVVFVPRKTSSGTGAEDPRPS
Sequence of Insulin receptor (P06213 763-1382 limits assumed): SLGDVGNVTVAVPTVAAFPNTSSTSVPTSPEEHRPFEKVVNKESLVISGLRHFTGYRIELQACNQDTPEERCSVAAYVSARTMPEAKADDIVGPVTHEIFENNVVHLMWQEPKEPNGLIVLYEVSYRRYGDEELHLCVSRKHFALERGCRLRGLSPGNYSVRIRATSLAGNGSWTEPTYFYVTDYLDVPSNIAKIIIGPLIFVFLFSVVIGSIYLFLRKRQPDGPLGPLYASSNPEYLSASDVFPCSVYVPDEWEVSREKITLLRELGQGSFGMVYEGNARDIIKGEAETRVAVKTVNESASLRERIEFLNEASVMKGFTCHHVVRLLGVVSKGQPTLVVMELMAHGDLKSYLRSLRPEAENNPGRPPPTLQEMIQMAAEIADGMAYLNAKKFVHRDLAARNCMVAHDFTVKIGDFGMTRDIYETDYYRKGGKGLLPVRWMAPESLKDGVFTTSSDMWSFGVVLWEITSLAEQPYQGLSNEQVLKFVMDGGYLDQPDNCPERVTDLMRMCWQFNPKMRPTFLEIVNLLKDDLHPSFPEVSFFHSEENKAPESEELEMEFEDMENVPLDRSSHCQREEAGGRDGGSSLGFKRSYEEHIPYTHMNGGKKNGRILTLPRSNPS

[9] = target: Tyrosine-protein kinase SYK (Homo sapiens, UniProt P43405); assay: Inhibition of Syk (unknown origin) using GST-SLP-76 as peptide substrate incubated for 10 mins in presence of [gamma-33P]ATP by scintillation counter assay
[10] = target: cAMP-dependent protein kinase (PKA) (Homo sapiens, UniProt P22694+P17612+P22612); assay: Inhibition of PKA (unknown origin) using GST-SLP-76 as peptide substrate incubated for 10 mins in presence of [gamma-33P]ATP by scintillation counter assay; type: protein assay
[11] = target: Tyrosine-protein kinase Fyn (Homo sapiens, UniProt P06241); assay: Inhibition of Fyn (unknown origin) using GST-SLP-76 as peptide substrate incubated for 10 mins in presence of [gamma-33P]ATP by scintillation counter assay
Sequence of Tyrosine-protein kinase Fyn (P06241 whole entry): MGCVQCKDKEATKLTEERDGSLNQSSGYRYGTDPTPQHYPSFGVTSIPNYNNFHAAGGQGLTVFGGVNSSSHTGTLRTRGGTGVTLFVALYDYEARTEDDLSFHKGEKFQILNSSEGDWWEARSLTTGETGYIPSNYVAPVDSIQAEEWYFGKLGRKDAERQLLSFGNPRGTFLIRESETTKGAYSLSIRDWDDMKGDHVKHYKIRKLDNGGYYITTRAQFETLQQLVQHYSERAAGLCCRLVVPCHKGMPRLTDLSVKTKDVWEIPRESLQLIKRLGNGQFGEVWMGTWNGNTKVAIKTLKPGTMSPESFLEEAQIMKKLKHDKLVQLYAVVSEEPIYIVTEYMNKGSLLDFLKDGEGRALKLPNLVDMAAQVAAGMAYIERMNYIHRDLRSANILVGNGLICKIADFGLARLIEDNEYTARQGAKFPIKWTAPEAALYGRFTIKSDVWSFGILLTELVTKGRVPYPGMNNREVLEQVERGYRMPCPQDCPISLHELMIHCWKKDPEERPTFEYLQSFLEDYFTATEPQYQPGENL

[12] = target: T1, Tyrosine-protein kinase ITK/TSK (Homo sapiens); assay: Inhibition of Itk in human Jurkat T cells assessed as inhibition of PLCgamma1 phosphorylation incubated for 20 mins in presence of CD3 antibody G19-4 by Western blotting analysis; type: cell-based; conditions: dose 0.1-10 µM
[13] = target: RAC-alpha serine/threonine-protein kinase (Homo sapiens, UniProt P31749); assay: Inhibition of Akt1 (unknown origin) using GST-SLP-76 as peptide substrate incubated for 10 mins in presence of [gamma-33P]ATP by scintillation counter assay
Sequence of RAC-alpha serine/threonine-protein kinase (P31749 whole entry): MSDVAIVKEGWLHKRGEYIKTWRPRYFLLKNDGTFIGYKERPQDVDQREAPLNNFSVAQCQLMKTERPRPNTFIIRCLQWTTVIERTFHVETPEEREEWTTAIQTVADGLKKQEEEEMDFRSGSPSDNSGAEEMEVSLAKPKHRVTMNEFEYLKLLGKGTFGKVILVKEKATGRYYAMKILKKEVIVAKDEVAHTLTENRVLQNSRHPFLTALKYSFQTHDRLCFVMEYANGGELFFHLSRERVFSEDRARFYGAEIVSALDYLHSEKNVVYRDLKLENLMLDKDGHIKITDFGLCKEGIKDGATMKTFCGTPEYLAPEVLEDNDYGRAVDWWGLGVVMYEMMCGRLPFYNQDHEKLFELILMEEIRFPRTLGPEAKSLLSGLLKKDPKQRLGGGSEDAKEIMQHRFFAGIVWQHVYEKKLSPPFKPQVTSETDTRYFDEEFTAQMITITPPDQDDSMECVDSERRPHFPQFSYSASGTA

[14] = target: Tyrosine-protein kinase BTK (Homo sapiens, UniProt Q06187); assay: Inhibition of Btk (unknown origin) using GST-SLP-76 as peptide substrate incubated for 10 mins in presence of [gamma-33P]ATP by scintillation counter assay
Sequence of Tyrosine-protein kinase BTK (Q06187 whole entry): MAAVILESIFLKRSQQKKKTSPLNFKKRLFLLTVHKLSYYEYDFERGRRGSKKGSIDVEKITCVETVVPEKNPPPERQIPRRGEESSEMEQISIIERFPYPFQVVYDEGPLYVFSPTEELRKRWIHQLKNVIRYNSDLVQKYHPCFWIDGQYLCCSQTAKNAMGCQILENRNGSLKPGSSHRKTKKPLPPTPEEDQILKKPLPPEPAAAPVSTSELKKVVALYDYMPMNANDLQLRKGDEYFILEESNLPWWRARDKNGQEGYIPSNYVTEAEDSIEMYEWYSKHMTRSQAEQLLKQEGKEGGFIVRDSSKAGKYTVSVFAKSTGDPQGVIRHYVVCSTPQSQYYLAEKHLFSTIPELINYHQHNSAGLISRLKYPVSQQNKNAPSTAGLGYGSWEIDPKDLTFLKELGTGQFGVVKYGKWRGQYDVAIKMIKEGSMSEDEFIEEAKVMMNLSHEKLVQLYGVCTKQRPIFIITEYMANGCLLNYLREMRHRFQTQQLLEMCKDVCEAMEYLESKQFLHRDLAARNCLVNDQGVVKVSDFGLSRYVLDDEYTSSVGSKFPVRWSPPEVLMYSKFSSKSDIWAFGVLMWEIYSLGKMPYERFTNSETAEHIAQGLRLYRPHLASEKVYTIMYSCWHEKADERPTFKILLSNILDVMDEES

inhibition [1]	IC50 [2]	inhibition [3]	IC50 [4]	IC50 [5]	IC50 [8]	IC50 [9]	IC50 [10]	IC50 [11]	inhibition [12]	IC50 [13]	IC50 [14]	Compound	IC50 [6]	IC50 [7]
Active	> 50 µM	Active	> 50 µM	11 µM	1.1 µM	> 50 µM	> 50 µM	1.1 µM	Dose-Dependent Effect	> 50 µM	4.1 µM	COc1cc(C)c(Sc2cnc(NC(=O)c3ccc(CNC(C)C(C)(C)C)cc3)s2)cc1C(=O)N1CCN(C(C)=O)CC1 (stereo not drawn)	0.43 µM	33.5 µM
Active	> 50 µM	Active	> 50 µM	> 50 µM	4.4 µM	> 50 µM	> 50 µM	8.6 µM	Dose-Dependent Effect	> 50 µM	> 50 µM	CC(=O)N1CCN(C(=O)c2cc(CSc3cnc(NC(=O)c4ccc(CNC(C)C(C)(C)C)cc4)s3)cc(C)c2C)CC1 (stereo not drawn)	0.35 µM	> 50 µM
